Measurements taken from patent US4792609A, “Indoline and 1,2,3,4-tetrahydroquinoline N(dicarboalkoxyvinyl) substituted derivatives” (Bayer Aktiengesellschaft, priority 1985, dated 1988).

What was measured:
[1] = UV absorption (λmax, molar and specific extinction, intrinsic coloration); type: physicochemical; settings: for E (molar extinction coefficient): Table 1, at λmax; for specific extinction: text on Table 2, compared with compounds of formula I, in words
[2] = solubility at RT in cosmetic oils; type: physicochemical; settings: for solubility at RT, groundnut/paraffin oil = 1:9: groundnut/paraffin oil = 1:9, printed as symbol

Row | λmax ([1]; Table 1) | E (molar extinction coefficient) [1] | specific extinction E^1 ([1]; Table 2) | λmax ([1]; Table 2) | solubility at RT, groundnut oil ([2]; printed as symbol) | solubility at RT, groundnut/paraffin oil = 1:9 [2] | specific extinction [1] | solubility at RT, groundnut oil [2] | SMILES
1 | 330 nm | 32200 L/mol/cm | 1114 | 330 nm | .infin. | .infin. | – | – | CCOC(=O)C(=CN1CCc2ccccc21)C(=O)OCC [(1), N-(dicarboethoxyvinyl)indoline]
2 | – | – | 160 | 330 nm | – | – | markedly lower specific extinction | – | COc1ccc(C(=O)c2cc(S(=O)(=O)O)c(OC)cc2O)c(O)c1 [Comparison example 1, sodium 2,2'-dihydroxy-4,4'-dimethoxybenzophenone-5-sulphonate, reference compound]
3 | – | – | 645 | 351 nm | – | – | markedly lower specific extinction | 0.8% | O=C(c1ccc(O)cc1O)c1ccc(O)cc1O [Comparison example 2, 2,2',4,4'-tetrahydroxybenzophenone, reference compound]
4 | – | – | – | – | – | – | – | 1% | COc1ccc(C(=O)CC(=O)c2ccc(OC)cc2)cc1 [Comparison example 3, dianisoylmethane, reference compound]
5 | 330 nm | 30000 L/mol/cm | 1008 | 330 nm | .infin. | .infin. | – | – | CCOC(=O)C(=CN1c2ccccc2CC1C)C(=O)OCC (stereo not drawn) [Compound (2), N-(dicarboethoxyvinyl)-2-methylindoline]

Further lines, the molecule ahead of its results:

Row | SMILES | λmax ([1]; Table 1) | E (molar extinction coefficient) [1] | specific extinction E^1 ([1]; Table 2) | λmax ([1]; Table 2) | solubility at RT, groundnut oil ([2]; printed as symbol) | solubility at RT, groundnut/paraffin oil = 1:9 [2] | specific extinction [1] | solubility at RT, groundnut oil [2]
6 | CCOC(=O)C(C(=O)OCC)=C(C)N1CCc2ccccc21 [(3), N-(α-methyl-β,β-dicarboethoxyvinyl)indoline] | 338 nm | – | – | 338 nm | .infin. | .infin. | – | –
7 | CC(C)COC(=O)C(=CN1c2ccccc2CC1C)C(=O)OCC(C)C (stereo not drawn) [(4), N-(dicarbo-iso-butoxyvinyl)-2-methylindoline] | 331 nm | 26200 L/mol/cm | 730 | 331 nm | .infin. | .infin. | – | –
8 | CCCCCCOC(=O)C(=CN1c2ccccc2CC1C)C(=O)OCCCCCC (stereo not drawn) [(5), N-(dicarbohexyloxyvinyl)-2-methylindoline] | 332 nm | 25300 L/mol/cm | 582 | 332 nm | .infin. | .infin. | – | –
9 | CCOC(=O)C(=CN1CCCc2ccccc21)C(=O)OCC [(6), N-(dicarboethoxyvinyl)-1,2,3,4-tetrahydroquinoline] | 317 nm | 26700 L/mol/cm | 878 | 317 nm | .infin. | .infin. | – | –
